Source: patent publication US8697858B2 (priority 2009, dated 2014)
Where “and” joins values, the source holds several entries; their conditions need not be identical. Equal values may be shown once. Read-outs that look alike come from different tables or passages of the source. In the oligonucleotide strings, read from the 5' end, every base follows the letter of its sugar. An asterisk marks phosphorothioate; unmarked linkages are phosphodiester. Other units and linkages are bracketed, terminal groups are in braces. A string of capitals states the bases alone. [PMO-N] = phosphorodiamidate morpholino subunit (N: the base); [pip] = piperazino phosphorodiamidate linkage (PMOplus)

Columns and labels:
Format in all cases: in vivo, ferrets
[1] = test system: oseltamivir-resistant H1N1 (SOIV) pandemic influenza virus
[2] = test system: oseltamivir-resistant H1N1 (SOIV) pandemic influenza virus; remark: listed apart in the source
[3] = test system: oseltamivir-resistant H1N1 (SOIV) pandemic influenza virus; remark: listed apart in the source
[4] = test system: oseltamivir-resistant H1N1 (SOIV) pandemic influenza virus; details: for Viral Titer / Viral Titer AUC: n = 8
[5] = Post minus Pre, Tamiflu 5 mg/kg p.o. every 12 hours
[6] = Post, Tamiflu 5 mg/kg p.o. every 12 hours
[7] = Pre, Tamiflu 5 mg/kg p.o. every 12 hours

Question: For `CCOC(=O)C1=C[C@@H](OC(CC)CC)[C@H](NC(C)=O)[C@@H](N)C1` [Tamiflu, Oseltamivir, reference compound], which “Macrophage Cellularity in Upper Respiratory Tract, Day 3 Peak” value ([1]; nasal wash, Day 3, Tamiflu 5 mg/kg p.o. every 12 hours) is on record?
Answer: 7.91 ± 7.28

Question: What about the “Macrophage Cellularity in Upper Respiratory Tract, Average ± Std Deviation” value ([1]; nasal wash, Tamiflu 5 mg/kg p.o. every 12 hours) of the same compound?
Answer: 2.98 ± 2.71

Question: And the “Body Weight Change Difference” value [2, 5]?
Answer: -6.1 g/day

Question: And the “Max Body Temperatures Difference” value [2, 5]?
Answer: +1.3 ° F.

Question: What about the “Body Weight Change Post” value [2, 6] of the same compound?
Answer: 8.5 ± 3.2 g/day

Question: What about the “Max Body Temperatures Post” value [2, 6] of the same compound?
Answer: 105.7 ° F.

Question: And the “Body Weight Change Pre” value [2, 7]?
Answer: 15.1 ± 0.4 g/day

Question: What about the “Max Body Temperatures Pre” value [2, 7] of the same compound?
Answer: 104.4 ° F.

Question: What about the “Clinical Scores” value ([2]; Tamiflu 5 mg/kg p.o. every 12 hours) of the same compound?
Answer: 1.17 ± 0.25

Question: What about the “lung congestion, alveolitis, infiltrating cells” value ([3]; AVI-7100 with or without oseltamivir, oseltamivir-only) of the same compound?
Answer: significant congestion in the lung with marked alveolitis

Question: And the “Viral Titer” value ([4]; nasal wash, Day 1, Oseltamivir 5 mg/kg p.o. every 12 hours)?
Answer: 2.42 ± 0.58

Question: And the “Viral Titer” value ([4]; nasal wash, Day 3, Oseltamivir 5 mg/kg p.o. every 12 hours)?
Answer: 0.77 ± 0.73

Question: What about the “Viral Titer” value ([4]; nasal wash, Day 5, Oseltamivir 5 mg/kg p.o. every 12 hours) of the same compound?
Answer: 0.67 ± 0.67

Question: What about the “Viral Titer” value ([4]; nasal wash, Day 8, Oseltamivir 5 mg/kg p.o. every 12 hours) of the same compound?
Answer: 0.92 ± 0.37

Question: And the “Viral Titer AUC” value ([4]; nasal wash, Oseltamivir 5 mg/kg p.o. every 12 hours)?
Answer: 7.015

Question: What does the source list for “AVI-7100: PMOplus CGGT+TAGAAGAC+TCATC+TTT, three (piperazino) phosphorodiamidate linkages ([PMO-C][PMO-G][PMO-G][PMO-T][pip][PMO-T][PMO-A][PMO-G][PMO-A][PMO-A][PMO-G][PMO-A][PMO-C][pip][PMO-T][PMO-C][PMO-A][PMO-T][PMO-C][pip][PMO-T][PMO-T][PMO-T])”?
Answer: Macrophage Cellularity in Upper Respiratory Tract, Average ± Std Deviation ([1]; in vivo, ip, 10 mg/kg): 4.34 ± 3.82; Macrophage Cellularity in Upper Respiratory Tract, Day 3 Peak ([1]; in vivo, ip, 10 mg/kg): 3.88 ± 4.73; Macrophage Cellularity in Upper Respiratory Tract, Average ± Std Deviation ([1]; in vivo, ip, 30 mg/kg): 2.78 ± 2.97; Macrophage Cellularity in Upper Respiratory Tract, Day 3 Peak ([1]; in vivo, ip, 30 mg/kg): 1.59 ± 1.28; Clinical Scores ([2]; in vivo): 1.00 ± 0.00 and 1.11 ± 0.21; symptoms of influenza virus infection ([2]; in vivo): significantly reduces symptoms of influenza virus infection; Body Weight Change Difference ([2]; in vivo, ip, 10 mg/kg): -5.7 g/day; Body Weight Change Post ([2]; in vivo, ip, 10 mg/kg): 10.9 ± 1.5 g/day; Body Weight Change Pre ([2]; in vivo, ip, 10 mg/kg): 16.6 ± 0.8 g/day; Max Body Temperatures Difference ([2]; in vivo, ip, 10 mg/kg): +0.7 ° F.; Max Body Temperatures Post ([2]; in vivo, ip, 10 mg/kg): 106.1 ° F.; Max Body Temperatures Pre ([2]; in vivo, ip, 10 mg/kg): 105.4 ° F.; Body Weight Change Difference ([2]; in vivo, ip, 30 mg/kg): +0.8 g/day; Body Weight Change Post ([2]; in vivo, ip, 30 mg/kg): 12.6 ± 2.0 g/day; Body Weight Change Pre ([2]; in vivo, ip, 30 mg/kg): 11.8 ± 0.8 g/day; Max Body Temperatures Difference ([2]; in vivo, ip, 30 mg/kg): −0.5 ° F.; Max Body Temperatures Post ([2]; in vivo, ip, 30 mg/kg): 104.2 ° F.; Max Body Temperatures Pre ([2]; in vivo, ip, 30 mg/kg): 104.7 ° F.; lung congestion, alveolitis, infiltrating cells ([3]; in vivo): no congestion in the lung, only mild alveolitis, and few infiltrating cells; viral titer in nasal wash, benefit in words ([4]; in vivo): Significant benefit; Viral Titer AUC ([4]; 10 mg/kg): 5.515; Viral Titer AUC ([4]; 30 mg/kg): 5.675
